The compounds below were run against Bruton tyrosine kinase (BTK) (Homo sapiens (Human), UniProt Q06187) (assay: BTK Enzyme Activity Testing (in vitro kinase assay, ADP-Glo kinase assay kit)). Settings: BTK kinase (full length with His-Tag), 50 uM ATP in substrate solution, 30 min pre-incubation, 60 min reaction, 10 concentration points.
Format: biochemical
Protocol: An in vitro kinase assay is used to evaluate the effect of the inventive compounds on Bruton tyrosine kinase (BTK) activity.
The experimental method is generally described as follows:
In vitro activity of BTK is measured by detecting ADP produced in a kinase reaction with an ADP-Glo™ kinase assay kit from Promega Company. In the kinase assay, the kinase consumes ATP to phosphorylate the substrate, while producing ADP. ADP-Glo reagent then terminates the kinase reaction and completely consumes the remaining ATP. Finally, a kinase detection reagent is added to convert generated ADP into new ATP. Luciferase in the detection reagent is capable of catalyzing fluorescein with the participation of ATP and O2 to produce oxidized fluorescein, AMP, and generate light quantum, thereby converting a chemical signal into an optical signal (Luminecence). The intensity of optical signal is positively correlated with the production of ADP in the kinase reaction, so that the activity of kinase BTK can be thereby quantitatively determined.
All assays are conducted at a constant temperature of 23° C., using a Corning 3674 Type white 384-well plate; the BTK kinase (full length with His-Tag) is expressed and purified internally by the company; the substrate of kinase is polypeptide (4:1 Glu,Tyr) (from SignalChem) and ATP (from Sigma); and a microplate reader EnVision (Perkin Elmer) is used for reading an optical signal. The assay buffer includes 40 mM Tris-HCl (pH 7.5), 10 mM MgCl2 (Sigma), 2 mM MnCl2 (Sigma), 0.05 mM DTT (Sigma), and 0.01% BSA (Sigma); the BTK kinase is diluted with the assay buffer to a concentration of 1.6 ng/uL as a kinase reaction solution; and the substrate reaction solution comprises 0.2 mg/mL polypeptide substrate and 50 uM ATP.
Compound's IC50 is calculated from 10 concentration points by the following method. The compound is dissolved and diluted in 100% DMSO to a concentration of 1 mM, followed by a serial 3× dilution with DMSO to a minimum concentration of 0.05 uM. Each concentration stock is further diluted 40× with the assay buffer. To a 384-well assay plate are added 1 uL of a series of compound solutions and 2 uL of the kinase reaction solution, followed by mixing homogeneously, and incubating in the dark at room temperature. After in the dark for 30 min, 2 uL of the substrate reaction solution is added to allowed the total reaction volume to 5 uL. The reaction mixture is incubated in the dark at room temperature in the dark for another 60 min. An equal volume of 5 uL ADP-Glo™ reagent is then added to terminate the reaction. The resulting mixture is homogeneously mixed, and stands at room temperature for 40 min. Finally, 10 uL of the kinase detection reagent is added, stands at room temperature for 30 min, and then a value is read on Envision.
Percent inhibition is calculated based on the following equation: Inhibition %=[1−(RLUcompound−RLUmin)/(RLUmax−RLUmin)]×100 wherein RLUcompound is the luminescence reading at a given concentration of compound, RLUmin is the luminescence reading in the absence of kinase, and RLUmax is the luminescence reading in the absence of compound. IC50 of the compound is calculated by using a XLfit program in Excel.

Sequence of Bruton tyrosine kinase (BTK) (Q06187 whole entry): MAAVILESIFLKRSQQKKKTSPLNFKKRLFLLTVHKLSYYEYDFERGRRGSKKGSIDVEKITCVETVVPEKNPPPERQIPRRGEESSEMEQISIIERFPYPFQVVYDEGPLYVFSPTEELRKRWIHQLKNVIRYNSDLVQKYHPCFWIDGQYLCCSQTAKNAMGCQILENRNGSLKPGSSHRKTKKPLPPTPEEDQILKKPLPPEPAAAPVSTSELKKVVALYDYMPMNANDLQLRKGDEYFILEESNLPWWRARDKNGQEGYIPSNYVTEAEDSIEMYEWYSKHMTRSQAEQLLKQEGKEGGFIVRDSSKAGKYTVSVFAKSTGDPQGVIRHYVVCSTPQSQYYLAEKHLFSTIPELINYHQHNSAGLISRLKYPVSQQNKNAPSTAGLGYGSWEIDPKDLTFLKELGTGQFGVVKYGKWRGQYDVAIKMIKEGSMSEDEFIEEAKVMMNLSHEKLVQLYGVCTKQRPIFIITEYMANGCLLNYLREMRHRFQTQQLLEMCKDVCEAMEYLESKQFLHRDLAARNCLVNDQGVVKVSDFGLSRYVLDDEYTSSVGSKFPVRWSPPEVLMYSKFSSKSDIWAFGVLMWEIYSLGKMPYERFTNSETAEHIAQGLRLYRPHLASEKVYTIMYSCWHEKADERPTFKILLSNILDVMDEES

| IC50 [nM] | SMILES |
| --- | --- |
| < 100 | C=CC(=O)N1CC[C@@H](c2cc3cn[nH]c3c(-c3ccc(Oc4ccccc4)cc3)n2)C1 [Compound 22b, (R)-1-(3-(7-(4-phenoxyphenyl)-1H-pyrazolo[3,4-c]pyridin-5-yl)pyrrolidin-1-yl)prop-2-en-1-one] |
| < 100 | C=CC(=O)N1CCCC1c1cc2cn[nH]c2c(-c2ccc(Oc3ccccc3)cc2)n1 (centres unmarked) [Compound 21, 1-(2-(7-(4-phenoxyphenyl)-1H-pyrazolo[3,4-c]pyridin-5-yl)pyrrolidin-1-yl)prop-2-en-1-one] |
| < 100 | C=CC(=O)N1CCC(c2cc3cn[nH]c3c(-c3ccc(OC4CCCC4)cc3)n2)CC1 [Compound 12] |
| < 100 | C=CC(=O)N1CCC(c2cc3cn[nH]c3c(-c3ccc(Oc4ccccc4)cc3)n2)CC1 [Compound 7, 1-(4-(7-(4-phenoxyphenyl)-1H-pyrazolo[3,4-c]pyridin-5-yl)piperidin-1-yl)prop-2-en-1-one] |
| < 100 | C=CC(=O)N1CCC(c2cc3cn[nH]c3c(-c3ccc(C(=O)Nc4ccccn4)cc3)n2)C1 (centres unmarked) [Compound 18, 4-(5-(1-acryloylpyrrolidin-3-yl)-1H-pyrazolo[3,4-c]pyridin-7-yl)-N-(pyridin-2-yl) benzamide] |
| 100 to 500 | C=CC(=O)N1CCCC(c2cc3cn[nH]c3c(-c3ccc(OC4COC4)cc3)n2)C1 (centres unmarked) [Compound 2, 1-(3-(7-(4-(oxetan-3-oxy)phenyl)-1H-pyrazolo[3,4-c]pyridin-5-yl)piperidin-1-yl)prop-2-en-1-one] |
| < 100 | C=CC(=O)N1CCCC(c2cc3cn[nH]c3c(-c3ccc(Oc4ccccc4)cc3)n2)C1 (centres unmarked) [Compound 3, 1-(3-(7-(4-phenoxyphenyl)-1H-pyrazolo[3,4-c]pyridin-5-yl)piperidin-1-yl)prop-2-en-1-one] |
| 100 to 500 | CC#CC(=O)N1CCC(c2cc3cn[nH]c3c(-c3ccc(C(=O)Nc4ccccn4)cc3)n2)C1 (centres unmarked) [Compound 19, 4-(5-(1-(but-2-ynoyl)pyrrolidin-3-yl)-1H-pyrazolo[3,4-c]pyridin-7-yl)-N-(pyridin-2-yl)benzamide] |
| < 100 | C=CC(=O)N1CCN(c2cc3cn[nH]c3c(-c3ccc(Oc4ccccc4)cc3)n2)CC1 [Compound 9, 1-(4-(7-(4-phenoxyphenyl)-1H-pyrazolo[3,4-c]pyridin-5-yl)piperazin-1-yl)prop-2-en-1-one] |
| < 100 | CN(C)C/C=C/C(=O)N1CCCC(c2cc3cn[nH]c3c(-c3ccc(Oc4ccccc4)cc3)n2)C1 (centres unmarked) [Compound 4, (E)-4-(dimethylamino)-1-(3-(7-(4-phenoxyphenyl)-1H-pyrazolo[3,4-c]pyridin-5-yl)piperidin-1-yl)but-2-en-1-one] |
| 100 to 500 | CC#CC(=O)N1CCCC(c2cc3cn[nH]c3c(-c3ccc(Oc4ccccc4)cc3)n2)C1 (centres unmarked) [Compound 17, 1-(3-(7-(4-phenoxyphenyl)-1H-pyrazolo[3,4-c]pyridin-5-yl)piperidin-1-yl)but-2-yn-1-one] |
| < 100 | C=CC(=O)Nc1cccc(-c2cc3cn[nH]c3c(-c3ccc(Oc4ccccc4)cc3)n2)c1 [Compound 8, N-(3-(7-(4-phenoxyphenyl)-1H-pyrazolo[3,4-c]pyridin-5-yl)phenyl)acrylamide] |
| > 500 | C=CC(=O)N1CCC(c2cc3cn[nH]c3c(-c3ccc(CN4CCCC4)cc3)n2)CC1 [Compound 16, 1-(4-(7-(4-(pyrrolidin-1-ylmethyl)phenyl)-1H-pyrazolo[3,4-c]pyridin-5-yl)piperidin-1-yl)prop-2-en-1-one] |
| < 100 | C=CC(=O)N1CCC(c2cc3cn[nH]c3c(-c3ccc(Oc4ccccc4)cc3)n2)C1 (centres unmarked) [Compound 6, 1-(3-(7-(4-phenoxyphenyl)-1H-pyrazolo[3,4-c]pyridin-5-yl)pyrrolidin-1-yl)prop-2-en-1-one] |
| < 100 | C=CC(=O)N1CC[C@H](c2cc3cn[nH]c3c(-c3ccc(Oc4ccccc4)cc3)n2)C1 [Compound 22a, (S)-1-(3-(7-(4-phenoxyphenyl)-1H-pyrazolo[3,4-c]pyridin-5-yl)pyrrolidin-1-yl)prop-2-en-1-one] |
| < 100 | C=CC(=O)N1CCC(c2cc3cn[nH]c3c(-c3ccc(Oc4ccccn4)cc3)n2)CC1 [Compound 13, 1-(4-(7-(4-(pyridin-2-oxy)phenyl)-1H-pyrazolo[3,4-c]pyridin-5-yl)piperidin-1-yl)prop-2-en-1-one] |
| < 100 | C=CC(=O)N1CCC(c2cc3cn[nH]c3c(-c3ccc(Oc4cccc(F)c4)cc3)n2)CC1 [Compound 15, 1-(4-(7-(4-(3-fluorophenoxyl)phenyl)-1H-pyrazolo[3,4-c]pyridin-5-yl)piperidin-1-yl)prop-2-en-1-one] |
| < 100 | C=CC(=O)N1CCCC(c2cc(-c3ccc(Oc4ccccc4)cc3)c3[nH]ncc3c2)C1 (centres unmarked) [Compound 20, 1-(3-(7-(4-phenoxyphenyl)-1H-indazol-5-yl)piperidin-1-yl)prop-2-en-1-one] |
| < 100 | C=CC(=O)N1CCC(Nc2cc3cn[nH]c3c(-c3ccc(Oc4ccccc4)cc3)n2)C1 (centres unmarked) [Compound 11, 1-(3-((7-(4-phenoxyphenyl)-1H-pyrazolo[3,4-c]pyridin-5-yl)amino)pyrrolidin-1-yl)prop-2-en-1-one] |
| < 100 | C=CC(=O)N1CCC(c2cc3cn[nH]c3c(-c3ccc(Oc4ccccc4)cc3F)n2)CC1 [Compound 14, 1-(4-(7-(2-fluoro-4-phenoxyphenyl)-1H-pyrazolo[3,4-c]pyridin-5-yl)piperidin-1-yl)prop-2-en-1-one] |
| 100 to 500 | C=CC(=O)N1CCCC(c2cc3cn[nH]c3c(-c3ccc(CN4CCOCC4)cc3)n2)C1 (centres unmarked) [Compound 1, 1-(3-(7-(4-(morpholinomethyl)phenyl)-1H-pyrazolo[3,4-c]pyridin-5-yl)piperidin-1-yl)prop-2-en-1-one] |
| < 100 | C=CC(=O)NC1CCN(c2cc3cn[nH]c3c(-c3ccc(Oc4ccccc4)cc3)n2)C1 (centres unmarked) [Compound 10, N-(1-(7-(4-phenoxyphenyl)-1H-pyrazolo[3,4-c]pyridin-5-yl)pyrrolidin-3-yl)acrylamide] |
| < 100 | C=CS(=O)(=O)N1CCCC(c2cc3cn[nH]c3c(-c3ccc(Oc4ccccc4)cc3)n2)C1 (centres unmarked) [Compound 5, 7-(4-phenoxyphenyl)-5-(1-(ethenylsulfonyl)piperidin-3-yl)-1H-pyrazolo[3,4-c]pyridine] |
